Measured values: patent US10526316B2, “Quinoxaline and pyridopyrazine derivatives as PI3Kβ inhibitors” (Janssen Pharmaceutica NV, priority 2015, dated 2020)

Assays:
PI3Kβ = target: T1, PI3Kβ (Homo sapiens, UniProt P42338); experiment: Enzyme binding assay (KINOMEscan, DiscoveRx); conditions: PIK3Cβ_h, read-out: Kd PIK3Cβ_h
T1 construct: purchased DiscoveRx Corporation, San Diego (contract service, KINOMEscan)
Summary of the method: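 Values are Kd in nM, the binding constant of each inhibitor for the kinase, obtained from a KINOMEscan enzyme binding assay.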

PI3Kδ = target: T2, PI3Kδ (Homo sapiens, UniProt O00329); experiment: Enzyme binding assay (KINOMEscan, DiscoveRx); conditions: PIK3Cδ_h
T2 construct: purchased DiscoveRx Corporation, San Diego (contract service, KINOMEscan)
T2 sequence (O00329 1-1044): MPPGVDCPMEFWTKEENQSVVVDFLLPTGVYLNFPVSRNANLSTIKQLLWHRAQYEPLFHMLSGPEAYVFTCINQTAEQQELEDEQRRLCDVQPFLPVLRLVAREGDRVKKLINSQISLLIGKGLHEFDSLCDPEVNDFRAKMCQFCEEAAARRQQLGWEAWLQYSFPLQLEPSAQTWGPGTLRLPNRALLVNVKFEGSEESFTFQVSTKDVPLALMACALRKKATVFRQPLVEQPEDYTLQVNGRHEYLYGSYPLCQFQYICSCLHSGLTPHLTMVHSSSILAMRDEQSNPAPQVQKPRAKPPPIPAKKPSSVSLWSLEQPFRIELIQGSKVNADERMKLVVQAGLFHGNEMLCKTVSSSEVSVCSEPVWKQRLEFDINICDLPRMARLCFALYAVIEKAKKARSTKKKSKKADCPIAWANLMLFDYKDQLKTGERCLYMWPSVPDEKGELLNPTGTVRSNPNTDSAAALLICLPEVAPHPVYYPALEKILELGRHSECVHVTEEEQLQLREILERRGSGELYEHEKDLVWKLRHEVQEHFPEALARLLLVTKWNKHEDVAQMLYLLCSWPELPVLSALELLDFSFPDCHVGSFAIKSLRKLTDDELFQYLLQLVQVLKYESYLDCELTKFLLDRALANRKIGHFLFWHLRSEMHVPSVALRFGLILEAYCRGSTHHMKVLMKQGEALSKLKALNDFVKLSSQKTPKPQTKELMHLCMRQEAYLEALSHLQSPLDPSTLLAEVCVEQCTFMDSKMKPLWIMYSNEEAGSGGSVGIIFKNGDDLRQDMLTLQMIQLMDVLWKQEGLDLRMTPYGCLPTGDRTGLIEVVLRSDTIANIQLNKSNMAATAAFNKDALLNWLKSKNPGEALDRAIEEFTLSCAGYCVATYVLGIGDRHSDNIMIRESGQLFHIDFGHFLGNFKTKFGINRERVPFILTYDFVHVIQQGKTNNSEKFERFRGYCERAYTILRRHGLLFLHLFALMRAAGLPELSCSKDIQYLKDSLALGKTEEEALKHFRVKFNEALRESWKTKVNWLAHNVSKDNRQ
Summary of the method: (§1)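 Affinity for each kinase was determined by KINOMEscan profiling.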

kinase enzymes [1] = target: T3, kinase enzymes (Homo sapiens, UniProt P42336); experiment: Enzyme binding assay (KINOMEscan, DiscoveRx), further kinases of Table A; conditions: PIK3Cα_h
T3 construct: purchased DiscoveRx Corporation, San Diego (contract service, KINOMEscan)
T3 sequence (P42336 whole entry): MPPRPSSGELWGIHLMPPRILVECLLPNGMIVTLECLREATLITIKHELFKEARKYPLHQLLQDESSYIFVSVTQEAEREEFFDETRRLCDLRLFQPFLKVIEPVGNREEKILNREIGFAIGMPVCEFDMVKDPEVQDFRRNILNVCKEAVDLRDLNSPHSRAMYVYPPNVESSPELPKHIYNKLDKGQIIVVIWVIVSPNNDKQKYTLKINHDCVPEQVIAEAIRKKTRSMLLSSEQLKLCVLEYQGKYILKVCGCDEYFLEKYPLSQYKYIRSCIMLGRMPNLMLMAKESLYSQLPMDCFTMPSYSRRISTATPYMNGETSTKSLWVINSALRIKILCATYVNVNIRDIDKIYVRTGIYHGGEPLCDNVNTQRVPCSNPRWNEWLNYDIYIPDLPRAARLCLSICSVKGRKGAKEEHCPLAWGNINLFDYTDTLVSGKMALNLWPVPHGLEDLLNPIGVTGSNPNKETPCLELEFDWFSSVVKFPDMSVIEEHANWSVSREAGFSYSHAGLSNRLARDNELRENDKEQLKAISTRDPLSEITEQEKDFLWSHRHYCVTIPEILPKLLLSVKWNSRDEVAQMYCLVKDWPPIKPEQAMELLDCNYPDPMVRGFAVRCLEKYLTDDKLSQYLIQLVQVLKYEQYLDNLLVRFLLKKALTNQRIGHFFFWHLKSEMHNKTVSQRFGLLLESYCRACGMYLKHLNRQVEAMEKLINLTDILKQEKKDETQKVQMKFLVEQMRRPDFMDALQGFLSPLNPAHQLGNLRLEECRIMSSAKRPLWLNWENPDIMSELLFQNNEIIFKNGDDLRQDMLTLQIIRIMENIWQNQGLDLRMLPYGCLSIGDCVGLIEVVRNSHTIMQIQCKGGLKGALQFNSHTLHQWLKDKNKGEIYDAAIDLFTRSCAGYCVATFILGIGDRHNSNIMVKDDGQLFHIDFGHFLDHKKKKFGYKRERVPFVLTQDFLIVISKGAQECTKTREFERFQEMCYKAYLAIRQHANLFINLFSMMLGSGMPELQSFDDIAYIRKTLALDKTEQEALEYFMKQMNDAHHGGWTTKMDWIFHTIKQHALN
Summary of the method: as §1

kinase enzymes [2] = target: T4, kinase enzymes (Homo sapiens, UniProt P42345); experiment: as above; conditions: MTOR_h
T4 construct: purchased DiscoveRx Corporation, San Diego (contract service, KINOMEscan)
Summary of the method: as §1

kinase enzymes [3] = target: T5, kinase enzymes (Homo sapiens, UniProt P48736); experiment: as above; conditions: PIK3Cγ_h
T5 construct: purchased DiscoveRx Corporation, San Diego (contract service, KINOMEscan)
T5 sequence (P48736 whole entry): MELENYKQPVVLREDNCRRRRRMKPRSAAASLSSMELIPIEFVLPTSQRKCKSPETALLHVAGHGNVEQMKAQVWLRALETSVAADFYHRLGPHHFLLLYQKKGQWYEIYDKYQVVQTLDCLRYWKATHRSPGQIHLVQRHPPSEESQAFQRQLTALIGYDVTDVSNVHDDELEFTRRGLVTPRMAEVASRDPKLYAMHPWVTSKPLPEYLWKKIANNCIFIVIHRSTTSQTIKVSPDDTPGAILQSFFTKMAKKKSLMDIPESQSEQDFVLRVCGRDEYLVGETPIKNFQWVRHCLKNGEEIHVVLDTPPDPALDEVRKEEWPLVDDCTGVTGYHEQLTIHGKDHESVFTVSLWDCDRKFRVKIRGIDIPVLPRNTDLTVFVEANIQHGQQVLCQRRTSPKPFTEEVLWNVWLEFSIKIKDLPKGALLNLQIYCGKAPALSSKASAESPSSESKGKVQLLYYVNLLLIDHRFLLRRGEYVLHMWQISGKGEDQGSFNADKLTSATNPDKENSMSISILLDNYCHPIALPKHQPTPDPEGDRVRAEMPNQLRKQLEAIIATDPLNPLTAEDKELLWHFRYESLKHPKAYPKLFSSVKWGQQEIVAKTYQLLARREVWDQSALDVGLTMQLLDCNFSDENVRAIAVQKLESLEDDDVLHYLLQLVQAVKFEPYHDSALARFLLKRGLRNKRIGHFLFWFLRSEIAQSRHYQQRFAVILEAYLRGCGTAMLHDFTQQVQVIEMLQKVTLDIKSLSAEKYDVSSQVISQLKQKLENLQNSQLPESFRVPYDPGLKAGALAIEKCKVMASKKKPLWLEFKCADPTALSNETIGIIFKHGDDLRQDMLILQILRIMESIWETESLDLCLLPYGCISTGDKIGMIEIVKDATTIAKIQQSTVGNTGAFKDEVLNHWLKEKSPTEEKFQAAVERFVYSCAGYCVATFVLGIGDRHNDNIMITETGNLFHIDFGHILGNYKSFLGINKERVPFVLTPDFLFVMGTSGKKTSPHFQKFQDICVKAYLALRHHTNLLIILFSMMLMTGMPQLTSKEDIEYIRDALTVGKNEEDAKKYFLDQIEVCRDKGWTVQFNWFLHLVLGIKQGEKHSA
Summary of the method: as §1

[4] = tested on: Akt phosphorylated at Ser473 in PC-3 cells; experiment: Cellular assay: phosphorylation of Akt at Ser473 in PC-3 cells (MSD ELISA); assay type: cell-based; conditions: Homo sapiens, PC-3, 1 h, PC-3 cells, 60 min compound incubation, MSD ELISA; read-out: IC50 pAkt_S473
Summary of the method: (§2)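 Electrochemiluminescent sandwich ELISA read-out: phospho-specific capture (Ser473 or Thr308), Sulfo-tag anti-total Akt detection, signal proportional to phospho-Akt. Cells treated 60 min at 37° C with compound, DMSO 0.3%. IC50 fitted from five concentrations.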

[5] = tested on: Akt phosphorylated at Thr308 in PC-3 cells; experiment: Cellular assay: phosphorylation of Akt at Thr308 in PC-3 cells (MSD ELISA); assay type: cell-based; conditions: Homo sapiens, PC-3, 1 h, PC-3 cells, 60 min compound incubation, MSD ELISA; read-out: IC50 pAkt_Thr308
Summary of the method: as §2

T1 sequence (P42338 whole entry): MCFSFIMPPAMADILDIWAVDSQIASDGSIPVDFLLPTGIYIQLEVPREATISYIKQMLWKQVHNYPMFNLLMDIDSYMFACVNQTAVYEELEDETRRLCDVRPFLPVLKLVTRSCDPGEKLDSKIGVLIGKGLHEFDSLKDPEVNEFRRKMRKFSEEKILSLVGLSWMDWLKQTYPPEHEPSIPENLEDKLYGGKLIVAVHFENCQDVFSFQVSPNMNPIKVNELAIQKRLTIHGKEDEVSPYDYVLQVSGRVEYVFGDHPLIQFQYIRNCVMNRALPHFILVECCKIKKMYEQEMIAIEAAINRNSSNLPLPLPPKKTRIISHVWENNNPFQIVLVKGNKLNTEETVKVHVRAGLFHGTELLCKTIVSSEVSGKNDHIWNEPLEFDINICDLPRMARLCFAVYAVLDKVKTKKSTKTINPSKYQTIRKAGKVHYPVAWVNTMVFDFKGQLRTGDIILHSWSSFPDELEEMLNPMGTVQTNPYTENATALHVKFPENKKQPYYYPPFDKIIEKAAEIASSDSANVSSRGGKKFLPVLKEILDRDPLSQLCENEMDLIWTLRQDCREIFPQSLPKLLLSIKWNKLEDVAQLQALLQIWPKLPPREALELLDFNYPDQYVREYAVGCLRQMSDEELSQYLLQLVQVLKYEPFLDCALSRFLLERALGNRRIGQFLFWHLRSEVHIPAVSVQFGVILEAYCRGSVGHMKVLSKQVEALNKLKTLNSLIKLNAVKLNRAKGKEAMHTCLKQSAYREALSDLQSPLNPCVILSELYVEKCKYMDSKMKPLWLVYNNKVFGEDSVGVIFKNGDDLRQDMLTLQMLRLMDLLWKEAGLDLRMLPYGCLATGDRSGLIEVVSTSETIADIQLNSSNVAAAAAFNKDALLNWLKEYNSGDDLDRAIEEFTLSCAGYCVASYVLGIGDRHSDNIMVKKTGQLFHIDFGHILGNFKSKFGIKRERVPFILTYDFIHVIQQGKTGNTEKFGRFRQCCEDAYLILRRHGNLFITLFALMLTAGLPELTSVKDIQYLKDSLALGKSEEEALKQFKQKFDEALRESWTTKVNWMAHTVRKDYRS

SMILES: CC(Oc1cc(F)cc(F)c1)c1cc(C(=O)NCCO)cc2ncc(N3CCOCC3)nc12 (stereo not shown) [Compound 198]
- Kd (PI3Kβ): 22 nM
- Kd (PI3Kδ): 3160 nM
- Kd (kinase enzymes [1]): 11200 nM
- Kd (kinase enzymes [2]): > 30200 nM
- Kd (kinase enzymes [3]): 15500 nM
- IC50 [4]: > 513 nM
- IC50 [5]: 200 nM
- melting point: 171 °C

SMILES: COC(=O)c1cc(C(C)Oc2ccc(F)c(F)c2)c2nc(N3CCOCC3)cnc2c1 (stereo not shown) [Compound 209]
- Kd (PI3Kβ): 316 nM
- Kd (PI3Kδ): 11500 nM
- Kd (kinase enzymes [1]): > 30200 nM
- Kd (kinase enzymes [2]): > 30200 nM
- Kd (kinase enzymes [3]): 17000 nM
- IC50 [4]: > 513 nM
- IC50 [5]: > 513 nM
- melting point: 183 °C

SMILES: CC(Nc1cc(F)c(C(F)(F)F)c(F)c1)c1cc(C(=O)NCCO)cc2ncc(N3CCOCC3)nc12 (stereo not shown) [Compound 223]
- Kd (PI3Kβ): 4790 nM
- Kd (PI3Kδ): > 30200 nM
- Kd (kinase enzymes [1]): > 30200 nM
- Kd (kinase enzymes [2]): > 30200 nM
- Kd (kinase enzymes [3]): 13800 nM
- IC50 [4]: > 513 nM
- IC50 [5]: > 513 nM
- melting point: 200 °C

SMILES: CNCCN(C)C(=O)c1cc(C(C)Nc2cc(F)c(C(F)(F)F)c(F)c2)c2nc(N3CCOCC3)cnc2c1 (stereo not shown) [Compound 224]
- Kd (PI3Kβ): 186 nM
- Kd (PI3Kδ): 4470 nM
- Kd (kinase enzymes [1]): 27500 nM
- Kd (kinase enzymes [2]): > 30200 nM
- Kd (kinase enzymes [3]): > 30200 nM
- IC50 [4]: 468 nM
- IC50 [5]: > 513 nM
- melting point: 163 °C

SMILES: CC(C)NCCNC(=O)c1cc(C(C)Nc2cccc(F)c2)c2nc(N3CCOCC3)cnc2c1 (stereo not shown) [Compound 226]
- Kd (PI3Kβ): 1 nM
- Kd (PI3Kδ): 275 nM
- Kd (kinase enzymes [1]): 2570 nM
- Kd (kinase enzymes [2]): 28800 nM
- Kd (kinase enzymes [3]): 5620 nM
- IC50 [4]: 20 nM
- IC50 [5]: 13 nM
- melting point: 158 °C

SMILES: O=C(NCCO)c1cc(NCc2cccc(F)c2)c2nc(N3CCOCC3)cnc2c1 [Compound 230]
- Kd (PI3Kβ): 12 nM
- Kd (PI3Kδ): 759 nM
- Kd (kinase enzymes [1]): 7080 nM
- Kd (kinase enzymes [2]): 12000 nM
- Kd (kinase enzymes [3]): 18200 nM
- IC50 [4]: 145 nM
- IC50 [5]: 141 nM
- melting point: 218 °C

SMILES: CC(Nc1cc(F)cc(F)c1)c1cc(C(=O)N2CCNC(C(F)(F)F)C2)cc2ncc(N3CCOCC3)nc12 (stereo not shown) [Compound 237]
- Kd (PI3Kβ): 1 nM
- Kd (PI3Kδ): 138 nM
- Kd (kinase enzymes [1]): 288 nM
- Kd (kinase enzymes [2]): > 30200 nM
- Kd (kinase enzymes [3]): 9330 nM
- IC50 [4]: 20 nM
- IC50 [5]: 11 nM
- melting point: 80 °C

SMILES: CC(Nc1cc(F)cc(F)c1)c1cc(C(=O)NC2CN(CC(F)(F)F)C2)cc2ncc(N3CCOCC3)nc12 (stereo not shown) [Compound 238]
- Kd (PI3Kβ): 8 nM
- Kd (PI3Kδ): 2210 nM
- Kd (kinase enzymes [1]): 5010 nM
- Kd (kinase enzymes [2]): > 30200 nM
- Kd (kinase enzymes [3]): 12300 nM
- IC50 [4]: 219 nM
- IC50 [5]: 157 nM
- melting point: 110 °C

SMILES: O=Cc1cc(C2CCCN2c2cc(F)cc(F)c2)c2nc(N3CCOCC3)cnc2c1 (stereo not shown) [Compound 250]
- Kd (PI3Kβ): 1 nM
- Kd (PI3Kδ): 219 nM
- Kd (kinase enzymes [1]): 339 nM
- Kd (kinase enzymes [2]): 14500 nM
- Kd (kinase enzymes [3]): 955 nM
- IC50 [4]: 5 nM
- IC50 [5]: 6 nM
- melting point: 120 °C

SMILES: CN(C)C(=O)c1cc(NCc2cc(F)cc(F)c2)c2nc(N3CCOCC3)cnc2c1 [Compound 278]
- Kd (PI3Kβ): 8 nM
- Kd (PI3Kδ): 1740 nM
- Kd (kinase enzymes [1]): 2090 nM
- Kd (kinase enzymes [2]): 19500 nM
- Kd (kinase enzymes [3]): 15800 nM
- IC50 [4]: 295 nM
- IC50 [5]: 178 nM
- melting point: 158 °C

SMILES: CC(Nc1ccc(F)c(F)c1)c1cc(C(=O)NCCO)cc2ncc(N3CCOCC3)nc12 (stereo not shown) [Compound 279]
- Kd (PI3Kβ): 5 nM
- Kd (PI3Kδ): 372 nM
- Kd (kinase enzymes [1]): 5370 nM
- Kd (kinase enzymes [2]): 19100 nM
- Kd (kinase enzymes [3]): 6460 nM
- IC50 [4]: 145 nM
- IC50 [5]: 115 nM
- melting point: 77 °C
